ChEMBL document CHEMBL1201862, “PubChem BioAssay data set” (2004)
The source made the active and inactive calls.

Columns and labels:
[1] = biological target: T1, Apoptotic protease-activating factor 1 (Homo sapiens, UniProt O14727); type: functional
T1 sequence (O14727 whole entry): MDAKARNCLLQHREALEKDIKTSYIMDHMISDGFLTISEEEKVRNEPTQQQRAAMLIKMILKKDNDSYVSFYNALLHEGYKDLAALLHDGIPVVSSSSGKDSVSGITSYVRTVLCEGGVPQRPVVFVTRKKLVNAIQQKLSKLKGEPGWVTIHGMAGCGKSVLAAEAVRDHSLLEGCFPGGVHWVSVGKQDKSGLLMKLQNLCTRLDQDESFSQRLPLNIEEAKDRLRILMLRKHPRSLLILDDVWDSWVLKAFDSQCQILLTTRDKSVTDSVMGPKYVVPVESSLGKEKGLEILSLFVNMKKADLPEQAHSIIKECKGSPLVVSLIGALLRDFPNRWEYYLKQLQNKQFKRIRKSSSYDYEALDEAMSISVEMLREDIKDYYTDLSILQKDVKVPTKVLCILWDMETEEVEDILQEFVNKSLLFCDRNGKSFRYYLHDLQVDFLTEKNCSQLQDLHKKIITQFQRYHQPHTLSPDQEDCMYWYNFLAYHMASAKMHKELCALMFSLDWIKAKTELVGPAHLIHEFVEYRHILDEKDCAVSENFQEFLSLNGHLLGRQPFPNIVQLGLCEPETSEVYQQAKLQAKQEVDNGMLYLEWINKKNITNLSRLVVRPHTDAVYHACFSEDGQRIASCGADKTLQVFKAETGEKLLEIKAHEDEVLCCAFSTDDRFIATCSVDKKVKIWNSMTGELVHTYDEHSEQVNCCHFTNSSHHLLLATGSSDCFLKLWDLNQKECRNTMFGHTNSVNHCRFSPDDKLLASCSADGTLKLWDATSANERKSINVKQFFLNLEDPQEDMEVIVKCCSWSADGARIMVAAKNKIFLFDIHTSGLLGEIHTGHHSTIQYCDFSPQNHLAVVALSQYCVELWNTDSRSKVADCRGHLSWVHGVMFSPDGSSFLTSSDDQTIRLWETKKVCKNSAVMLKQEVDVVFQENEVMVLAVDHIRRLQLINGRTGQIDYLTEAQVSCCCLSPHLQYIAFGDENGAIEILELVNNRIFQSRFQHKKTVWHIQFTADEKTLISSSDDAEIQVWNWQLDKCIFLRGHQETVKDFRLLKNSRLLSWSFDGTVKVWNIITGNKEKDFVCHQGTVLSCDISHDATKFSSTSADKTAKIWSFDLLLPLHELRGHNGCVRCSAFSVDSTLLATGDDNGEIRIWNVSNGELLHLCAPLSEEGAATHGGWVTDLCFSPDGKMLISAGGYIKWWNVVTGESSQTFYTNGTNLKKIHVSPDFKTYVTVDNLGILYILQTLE

[2] = biological target: T2, Calpain-2 catalytic subunit (Sus scrofa, UniProt P43367); assay: pig calpain II inhibitor potency, dose response, biochemical, fluorogenic peptide substrate (AID 1420); type: functional
T2 sequence (P43367 whole entry): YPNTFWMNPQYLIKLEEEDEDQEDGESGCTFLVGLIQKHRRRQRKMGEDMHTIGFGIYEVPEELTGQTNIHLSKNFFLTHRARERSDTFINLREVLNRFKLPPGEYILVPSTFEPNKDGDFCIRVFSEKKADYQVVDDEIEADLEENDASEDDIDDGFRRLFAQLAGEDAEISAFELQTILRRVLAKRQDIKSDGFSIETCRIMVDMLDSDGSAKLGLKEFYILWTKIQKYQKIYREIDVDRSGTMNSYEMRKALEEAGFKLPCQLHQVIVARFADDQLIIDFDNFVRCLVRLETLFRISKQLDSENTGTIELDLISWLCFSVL

[3] = biological target: T3, Polyadenylate-binding protein 1 (Homo sapiens, UniProt P11940); assay: PABP1 MLLE–PAM2 interaction inhibitors, dose response, miRNA deadenylation inhibitor project, biochemical, fluorescence polarization, Cy5-PAM2 peptide, secondary (AID 602260); type: functional; conditions: read-out: IC50_Mean
[4] = biological target: T3, Polyadenylate-binding protein 1; assay: PABP1 MLLE–PAM2 binding inhibitor potency, dose response, biochemical, fluorescence polarization, FITC-PAM2 peptide (AID 602259); type: functional; conditions: read-out: IC50_Mean
[5] = biological target: T4, Oxysterols receptor LXR-beta (Homo sapiens, UniProt P55055); type: functional, cell-based;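 also: agonist activity at LXR measured by a cell-based luminescence readout across a dose range, run as a counterscreen for daf-12 agonists; HEK293 cells with Gal4-LXR fusion and GAL4-driven luciferase reporter; potency for activation of Gal4-LXR reporter so compounds are agonists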
T4 sequence (P55055 whole entry): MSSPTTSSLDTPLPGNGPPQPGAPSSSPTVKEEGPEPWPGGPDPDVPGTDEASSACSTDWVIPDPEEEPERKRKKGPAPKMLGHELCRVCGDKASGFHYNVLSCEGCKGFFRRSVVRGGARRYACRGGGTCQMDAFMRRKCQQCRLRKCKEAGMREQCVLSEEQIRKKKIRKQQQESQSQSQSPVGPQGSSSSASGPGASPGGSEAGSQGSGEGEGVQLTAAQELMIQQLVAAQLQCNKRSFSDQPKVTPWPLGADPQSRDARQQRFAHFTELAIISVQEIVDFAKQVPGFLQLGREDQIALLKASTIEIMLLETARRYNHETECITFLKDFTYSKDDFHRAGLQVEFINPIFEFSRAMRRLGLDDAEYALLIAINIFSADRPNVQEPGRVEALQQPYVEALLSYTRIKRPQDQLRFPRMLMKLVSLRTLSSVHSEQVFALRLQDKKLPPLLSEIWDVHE

[6] = microbe, parasite or virus in culture; type: functional; conditions: Mycobacterium tuberculosis
[7] = biological target: T5, Ubiquitin-conjugating enzyme E2 N (Homo sapiens, UniProt P61088); type: functional;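 also: Dose-response confirmation in a TR-FRET assay detecting UBC13-driven polyubiquitin chain formation, inhibition measured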
T5 sequence (P61088 whole entry): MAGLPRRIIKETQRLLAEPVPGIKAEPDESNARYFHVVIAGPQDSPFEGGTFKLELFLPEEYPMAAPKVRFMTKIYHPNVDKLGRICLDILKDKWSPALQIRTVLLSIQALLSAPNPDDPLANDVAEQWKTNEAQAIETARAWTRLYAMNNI

[8] = inhibitors of clade B AD8 Env fusion, dose response, cell-based, cherry-pick (AID 652062); type: functional;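 also: luciferase signal from cell-cell fusion driven by HIV-1 clade B AD8 Env; potency is for inhibitors of fusion seen as a drop in luminescence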
[9] = off-target signal loss in HeLa-CEM21 co-culture – HeLa F-luc CTL cells, cherry-picked, counter-screen for HIV-1 Env fusion inhibitor project, dose response (AID 652040); type: functional, cell-based;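 also: potency for signal decrease marking cytotoxic or nonspecific inhibition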
[10] = inhibitors of HIV Env-driven cell fusion, dose response, cherry-pick (AID 652057); type: functional, cell-based
[11] = ZM109 Env clade C HIV-1 fusion inhibitors, dose response, HeLa effector, CEM target cells, luciferase, cherry-pick (AID 652058); type: functional, cell-based
H4 = assay: Luminescence Cell-Based Dose Response HTS to Identify Activators of 5'UTR Stem-Loop Driven Prion Protein mRNA Translation in H4 Neuroglioblastoma Cells. [Related pubchem assays: 1829 (Project Summary), 1814 (Primary HTS)]; type: functional; conditions: Homo sapiens
Fatty acid synthase [12] = biological target: T6, Fatty acid synthase (Homo sapiens, UniProt P49327); assay: FAS thioesterase domain inhibitors, dose response, biochemical, kinetic fluorescence intensity (AID 624326); type: functional;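 also: rate of fluorescence rise from hydrolysis of a fluorogenic O-methyl fluorescein ester substrate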
Fatty acid synthase [13] = biological target: T6, Fatty acid synthase; assay: FAS thioesterase domain inhibitors, dose response, biochemical, endpoint fluorescence intensity, uHTS hits (AID 624327); type: functional;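 also: fluorescence from hydrolysis of an O-methyl fluorescein acyl ester substrate by the enzyme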
[14] = inhibitors of intracellular T. cruzi replication, confirmation, NIH3T3 host cells, beta-gal luminescence (AID 2044); type: functional, cell-based;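 also: intracellular parasites grown in NIH/3T3 mouse fibroblasts as host cells; luminescent beta-galactosidase reporter signal from transgenic T. cruzi replicating inside host cells; inhibitors lower the luminescence signal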
Streptococcus = assay: Group A Streptococcus viability loss, dose response, counter-screen for streptokinase expression inhibitor project, luminescence, BacTiterGlo (AID 1915); type: functional, organism-based;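 also: potency for reduction of bacterial viability or growth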
Streptokinase A = biological target: T7, Streptokinase A (Streptococcus pyogenes serotype M1, UniProt P10520); assay: S. pyogenes streptokinase expression inhibitors, potency, dose response, plasminogen activation absorbance, OD405 (AID 1914); type: functional, Streptococcus pyogenes M1 GAS;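 also: secreted streptokinase activity via plasminogen activation per viability signal from cell pellet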
T7 sequence (P10520 whole entry): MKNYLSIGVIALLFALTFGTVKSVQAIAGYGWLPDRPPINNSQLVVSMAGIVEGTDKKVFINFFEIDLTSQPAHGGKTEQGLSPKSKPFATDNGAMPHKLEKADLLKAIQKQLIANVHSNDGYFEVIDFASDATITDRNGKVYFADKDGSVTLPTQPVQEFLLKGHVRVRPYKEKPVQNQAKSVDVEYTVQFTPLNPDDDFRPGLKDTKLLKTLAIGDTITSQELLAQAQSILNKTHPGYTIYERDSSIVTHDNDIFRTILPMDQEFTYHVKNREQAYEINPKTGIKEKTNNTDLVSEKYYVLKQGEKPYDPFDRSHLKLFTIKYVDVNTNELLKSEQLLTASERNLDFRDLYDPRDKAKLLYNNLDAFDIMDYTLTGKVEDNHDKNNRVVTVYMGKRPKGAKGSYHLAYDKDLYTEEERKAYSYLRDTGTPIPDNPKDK

[15] = cytotoxicity toward NIH3T3 fibroblasts, dose response, counter-screen, cell-based, ATP luminescence, mouse fibroblasts (AID 2010); type: functional;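 also: cells exposed to compound for about 90 hours before reading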
[16] = system: Streptococcus sp. 'group A'; assay: growth inhibition of control SK(-) GAS strain, dose response, counter-screen for streptokinase expression inhibitor project, luminescence, kanamycin, BacTiterGlo, confirmation (AID 1900); type: functional, organism-based
[17] = NIH-3T3 fibroblast cytotoxicity, dose response, cytotoxicity control, cell-based, fluorescence, Alamar Blue, secondary assay (AID 2327); type: functional;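 also: NIH-3T3 mouse fibroblasts cultured with fluconazole at 8 µg/mL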

T6 sequence (P49327 whole entry, the tested form may be a part): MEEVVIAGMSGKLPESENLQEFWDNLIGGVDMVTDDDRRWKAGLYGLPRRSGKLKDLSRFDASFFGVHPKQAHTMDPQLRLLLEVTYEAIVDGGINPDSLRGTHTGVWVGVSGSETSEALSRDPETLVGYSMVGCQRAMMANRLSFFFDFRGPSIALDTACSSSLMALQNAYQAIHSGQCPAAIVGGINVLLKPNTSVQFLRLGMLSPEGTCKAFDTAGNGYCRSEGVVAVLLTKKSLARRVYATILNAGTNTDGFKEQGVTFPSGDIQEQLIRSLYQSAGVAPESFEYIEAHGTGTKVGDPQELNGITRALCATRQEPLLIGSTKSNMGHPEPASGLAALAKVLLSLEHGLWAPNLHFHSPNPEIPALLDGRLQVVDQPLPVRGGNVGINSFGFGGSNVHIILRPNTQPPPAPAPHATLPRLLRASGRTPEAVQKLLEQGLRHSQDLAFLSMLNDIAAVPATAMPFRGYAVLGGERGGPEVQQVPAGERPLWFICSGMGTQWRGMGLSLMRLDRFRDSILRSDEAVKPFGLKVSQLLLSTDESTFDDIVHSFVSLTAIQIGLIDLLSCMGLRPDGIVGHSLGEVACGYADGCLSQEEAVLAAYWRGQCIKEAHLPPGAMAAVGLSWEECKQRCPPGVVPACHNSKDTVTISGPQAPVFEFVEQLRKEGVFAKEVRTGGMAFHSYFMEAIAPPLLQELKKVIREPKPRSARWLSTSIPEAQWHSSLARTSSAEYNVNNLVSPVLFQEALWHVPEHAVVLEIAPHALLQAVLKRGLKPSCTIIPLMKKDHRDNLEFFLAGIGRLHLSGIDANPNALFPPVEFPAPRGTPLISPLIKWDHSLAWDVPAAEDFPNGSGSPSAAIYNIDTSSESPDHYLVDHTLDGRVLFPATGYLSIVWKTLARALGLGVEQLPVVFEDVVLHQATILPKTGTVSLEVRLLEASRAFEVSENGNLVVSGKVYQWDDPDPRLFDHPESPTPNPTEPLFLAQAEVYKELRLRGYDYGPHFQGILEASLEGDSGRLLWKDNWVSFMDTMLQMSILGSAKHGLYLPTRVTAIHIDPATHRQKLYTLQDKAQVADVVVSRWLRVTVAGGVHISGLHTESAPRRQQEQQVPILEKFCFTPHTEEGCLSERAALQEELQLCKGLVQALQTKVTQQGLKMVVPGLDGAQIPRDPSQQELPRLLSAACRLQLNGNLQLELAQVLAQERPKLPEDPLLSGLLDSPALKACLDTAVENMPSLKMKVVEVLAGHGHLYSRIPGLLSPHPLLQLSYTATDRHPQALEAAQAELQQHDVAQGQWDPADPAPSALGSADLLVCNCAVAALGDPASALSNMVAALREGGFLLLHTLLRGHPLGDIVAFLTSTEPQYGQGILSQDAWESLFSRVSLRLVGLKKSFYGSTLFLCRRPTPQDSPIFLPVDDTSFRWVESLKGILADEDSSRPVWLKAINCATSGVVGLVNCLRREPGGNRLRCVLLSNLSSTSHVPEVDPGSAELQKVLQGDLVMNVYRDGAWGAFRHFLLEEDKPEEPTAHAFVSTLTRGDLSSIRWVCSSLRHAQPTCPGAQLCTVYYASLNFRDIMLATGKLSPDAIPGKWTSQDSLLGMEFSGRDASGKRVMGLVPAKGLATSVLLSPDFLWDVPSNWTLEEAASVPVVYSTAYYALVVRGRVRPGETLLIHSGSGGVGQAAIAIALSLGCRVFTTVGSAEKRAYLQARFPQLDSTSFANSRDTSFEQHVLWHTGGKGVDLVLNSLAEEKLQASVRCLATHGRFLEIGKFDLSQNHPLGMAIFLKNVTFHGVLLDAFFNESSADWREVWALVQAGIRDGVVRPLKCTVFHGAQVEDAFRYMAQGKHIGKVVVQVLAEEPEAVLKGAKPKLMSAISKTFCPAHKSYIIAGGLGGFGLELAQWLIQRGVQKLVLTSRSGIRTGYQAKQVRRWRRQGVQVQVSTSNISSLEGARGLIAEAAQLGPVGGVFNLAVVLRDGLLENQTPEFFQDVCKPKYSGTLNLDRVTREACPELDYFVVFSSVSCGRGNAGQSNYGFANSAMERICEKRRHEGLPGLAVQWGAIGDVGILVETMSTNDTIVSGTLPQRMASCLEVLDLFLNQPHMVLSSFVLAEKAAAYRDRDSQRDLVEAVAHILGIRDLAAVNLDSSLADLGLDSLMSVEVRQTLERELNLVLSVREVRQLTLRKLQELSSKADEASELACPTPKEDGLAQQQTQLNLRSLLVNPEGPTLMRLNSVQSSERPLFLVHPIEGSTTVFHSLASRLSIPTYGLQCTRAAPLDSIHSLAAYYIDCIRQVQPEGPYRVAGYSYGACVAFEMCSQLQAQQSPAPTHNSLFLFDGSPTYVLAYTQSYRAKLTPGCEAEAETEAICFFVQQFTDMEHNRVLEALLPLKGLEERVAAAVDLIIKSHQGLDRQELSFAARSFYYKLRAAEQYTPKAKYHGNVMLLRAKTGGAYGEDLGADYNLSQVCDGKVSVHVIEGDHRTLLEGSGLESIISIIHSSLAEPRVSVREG
T3 sequence (P11940 whole entry): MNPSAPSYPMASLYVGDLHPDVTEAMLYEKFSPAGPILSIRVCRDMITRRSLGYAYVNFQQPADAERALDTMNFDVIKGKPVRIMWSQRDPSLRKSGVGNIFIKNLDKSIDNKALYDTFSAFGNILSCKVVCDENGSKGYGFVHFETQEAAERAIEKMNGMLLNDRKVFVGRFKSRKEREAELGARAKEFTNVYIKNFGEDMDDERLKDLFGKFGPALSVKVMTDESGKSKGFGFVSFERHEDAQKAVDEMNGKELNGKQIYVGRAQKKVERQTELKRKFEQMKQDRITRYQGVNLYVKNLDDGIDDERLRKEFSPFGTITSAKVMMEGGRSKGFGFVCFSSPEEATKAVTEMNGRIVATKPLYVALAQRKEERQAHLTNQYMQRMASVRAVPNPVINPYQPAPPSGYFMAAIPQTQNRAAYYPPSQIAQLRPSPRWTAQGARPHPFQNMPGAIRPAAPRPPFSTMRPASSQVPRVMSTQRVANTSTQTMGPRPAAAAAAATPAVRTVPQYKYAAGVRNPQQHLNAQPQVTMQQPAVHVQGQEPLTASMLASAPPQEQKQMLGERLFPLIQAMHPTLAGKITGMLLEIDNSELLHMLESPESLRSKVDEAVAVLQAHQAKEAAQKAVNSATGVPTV

Compound: CN(C)S(=O)(=O)c1ccc2oc(SCC(=O)Nc3ccccc3F)nc2c1
- IC50 [1]: 7.98 µM (active)

Compound: Fc1ccccc1COc1ccc(Br)cc1CNCc1ccncc1
- IC50 [2]: > 50 µM (not active)

Compound: Nc1nc(-c2cccc(F)c2)cs1
- IC50 [3]: > 66 µM (inactive)
- IC50 [4]: > 66 µM (inactive)

Compound: CN(c1ccccc1)S(=O)(=O)c1cccc(C(=O)NC2CCCCC2)c1
- IC50 [3]: > 66 µM (inactive)
- IC50 [4]: > 66 µM (inactive)

Compound: CCN(CC(=O)Nc1ccccc1OC)C(=O)c1ccccc1Sc1ccccc1C#N
- IC50 [1]: > 100 µM (inactive)

Compound: CCOC(=O)N1CCC(NC(=O)c2cc3ccccn3n2)CC1
- EC50 [5]: > 67.5 µM (inactive)

Compound: O=C(C1=C[C@@H](c2csc3ccccc23)C[C@@H](OCCCCO)O1)N1CCN(Cc2ccc3c(c2)OCO3)CC1
- CC50 [6]: > 40 µM (active)

Compound: C=CCN(CC=C)Cc1nc(N)nc(Nc2ccccc2C)n1
- IC50 [2]: < 0.4 µM (not active)

Compound: Cc1cc(NC(=S)N(Cc2ccc(Br)cc2)Cc2ccc(C(=O)O)cc2)ccc1Cl
- IC50 [2]: 4.69 µM (not active)

Compound: COc1ccc(C[C@H]2CN3C(=NC[C@H]3Cc3ccccc3)N2CCNC(=O)c2ccc(C)c(Br)c2)cc1
- IC50 [7]: > 20 µM (inactive)
- IC50 [1]: > 100 µM (inactive)

Compound: CCc1nnc(NS(=O)(=O)c2ccc(NC(=S)NC(=O)c3ccc(Br)cc3)cc2)s1
- IC50 [2]: 6.7 µM (active)

Compound: COc1cc2c(c(OCC(=O)NC(C)C)c1)C(=O)O[C@@H](C)CCCC(=O)CCCCC2
- AC50 [8]: 11.3 µM (active)
- AC50 [9]: 5.78 µM (active)
- AC50 [10]: 4.35 µM (active)
- IC50 [3]: > 66 µM (inactive)
- AC50 [11]: 4.75 µM (active)
- IC50 [4]: 63.7 µM (inactive)

Compound: Cc1cc(C(=O)NC2CCCCC2)c(C)n1-c1ccc(F)cc1
- EC50 [5]: > 67.5 µM (inactive)
- EC50 (H4): 0.455 µM (active)

Compound: CCOc1ccc(NC(=S)NC(=O)c2cccnc2)c([N+](=O)[O-])c1
- IC50 [3]: > 66 µM (inactive)
- IC50 [4]: > 66 µM (inactive)

Compound: Cn1c(-c2ccc(F)cc2)cnc1NCc1cccc([N+](=O)[O-])c1
- IC50 (Fatty acid synthase [12]): 9.83 µM (active)
- IC50 (Fatty acid synthase [13]): 5.28 µM (active)

Compound: COc1ccc2[nH]c(C(=O)Nc3cccc(C)n3)cc2c1
- EC50 [5]: > 67.5 µM (inactive)

Compound: COCCN(C(=O)CSc1ccc2c(c1)OCCO2)c1c(N)n(CC(C)C)c(=O)[nH]c1=O
- IC50 [3]: > 66 µM (inactive)
- IC50 [4]: > 66 µM (inactive)

Compound: CS(=O)(=O)c1ccc(-c2csc(-c3cccnc3)n2)cc1
- IC50 (Fatty acid synthase [12]): 7.66 µM (active)
- IC50 (Fatty acid synthase [13]): 10.3 µM (active)

Compound: Cc1cc(C)nc(-n2nc(C)c(Sc3ccc(F)cc3)c2N)n1
- EC50 [14]: 2.01 µM (active)
- EC50 (Streptococcus): > 150 µM (not active)
- EC50 (Streptokinase A): > 150 µM (not active)
- EC50 [5]: > 67.5 µM (inactive)
- EC50 [15]: > 60 µM (not active)
- EC50 [16]: > 150 µM (not active)

Compound: CCN(CC(O)Cn1c2ccccc2c2ccccc21)S(=O)(=O)c1ccc(C)cc1 (stereo not drawn)
- IC50 [2]: 2.61 µM (not active)

Compound: Cc1cc(C(=O)NC2=NCCS2)cs1
- EC50 [5]: > 67.5 µM (inactive)

Compound: CN(C1CCCCC1)S(=O)(=O)c1ccc(NC(=S)NC(=O)c2cccs2)cc1
- IC50 [3]: > 66 µM (inactive)
- IC50 [4]: > 66 µM (inactive)

Compound: Cc1cc(-c2ccncc2)n2ncc(-c3ccccc3)c2n1
- EC50 [5]: > 67.6 µM (inactive)

Compound: COc1ccc(/C=N/OCC(=O)Nc2ccc3c(c2)OCO3)c(OC)c1
- IC50 [2]: > 50 µM (not active)

Compound: Cc1cc(C(=O)OCC(=O)Nc2cccc([N+](=O)[O-])c2)c(C)o1
- IC50 (Fatty acid synthase [12]): 17.2 µM (active)
- IC50 (Fatty acid synthase [13]): 9.82 µM (active)

Compound: Cc1cc(C)n2c(NC3CCCC3)c(-c3cc4ccccc4o3)nc2n1
- EC50 [5]: > 67.5 µM (inactive)

Compound: O=C(CCCN1C(=O)c2ccccc2C1=O)C1=C(NCCO)CC(c2ccccc2)CC1=O (stereo not drawn)
- EC50 [17]: > 150 µM (inactive)
- IC50 [2]: 30.4 µM (not active)
